Our source for the mass response values is the supplement of paper PMC9701192.

± gives the uncertainty stated by the source.

What all share (assay): mass response relative to vehicle control (EMD distance of treated vs reference mass distribution minus control baseline) (% of mean reference cell mass); higher = larger drug-induced change in single-cell mass distribution (stronger response)
Experiment [1] has as its system PC9. The protocol: (§1)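 Cancer cell lines were treated in vitro with drugs at the listed doses (about 24 h; 0.25% DMSO vehicle). Single-cell buoyant mass was measured on suspended microchannel resonator instruments with CNN image curation, 2500 cells per condition. Mass response is the Earth Mover's Distance to vehicle-treated reference cells as % of mean reference mass.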

Experiment [2] relates to MOLM-13. On the procedure: as §1
Experiment [3] concerns MM1S ATCC. On the procedure:
as §1

As for `COc1cc([C@@H]2c3cc4c(cc3[C@@H](O[C@@H]3O[C@@H]5CO[C@@H](C)O[C@H]5[C@H](O)[C@H]3O)[C@H]3COC(=O)[C@H]23)OCO4)cc(OC)c1O` [Etoposide], the mass response is 0.492 ± 1.6 in experiment [1] (0.01 µM), 0.732 ± 2.1 in experiment [1] (0.1 µM), 12.3 ± 1 in experiment [1] (1 µM) and 36.2 ± 0.97 in experiment [1] (10 µM).

For the compound `COc1cc2ncnc(Nc3ccc(F)c(Cl)c3)c2cc1OCCCN1CCOCC1` [Gefitinib], the mass response was determined as 7.94 ± 10 in experiment [1] (0.05 µM), 23.1 ± 11 in experiment [1] (0.5 µM), 35.1 ± 9.7 in experiment [1] (5 µM) and 81.56 ± 0.43 in experiment [1] (50 µM).

With `CCc1nc(C(N)=O)c(Nc2ccc(N3CCC(N4CCN(C)CC4)CC3)c(OC)c2)nc1NC1CCOCC1` [Gilteritinib], the mass response in experiment [2] (0.002 µM) is -3.18 ± 4.6; in experiment [2] (0.02 µM) it was 13.3 ± 3.4; in experiment [2] (0.2 µM), 35 ± 2.9; in experiment [2] (2 µM), 33.9 ± 5.4.

For the compound `CC(=O)[C@]1(O)Cc2c(O)c3c(c(O)c2[C@@H](O[C@H]2C[C@H](N)[C@H](O)[C@H](C)O2)C1)C(=O)c1ccccc1C3=O` [Idarubicin], the mass response in experiment [2] (0.001 µM) is -0.127 ± 1.4; in experiment [2] (0.01 µM), 19.1 ± 2.9; in experiment [2] (0.1 µM), 33.1 ± 2; in experiment [2] (1 µM), 36.6 ± 2.1.

In the case of `C/C(=C\c1csc(C)n1)[C@@H]1C[C@@H]2O[C@]2(C)CCC[C@H](C)[C@H](O)[C@@H](C)C(=O)C(C)(C)[C@@H](O)CC(=O)N1` [Ixabepilone], the mass response was found to be 19.5 ± 1.5 in experiment [1] (0.01 µM), 37.6 ± 4.5 in experiment [1] (0.1 µM), 36.7 ± 4.5 in experiment [1] (1 µM) and 36.8 ± 5.7 in experiment [1] (10 µM).

Take `CC(C)C[C@H](NC(=O)CNC(=O)c1cc(Cl)ccc1Cl)B(O)O` [Ixazomib]: the mass response in experiment [3] (0.00025 µM) is 2.33 ± 1.5; in experiment [3] (0.0025 µM), -0.705 ± 2.2; in experiment [3] (0.025 µM), 10.7 ± 0.64; in experiment [3] (0.25 µM), 9.05 ± 2.4.

As to `Nc1cccc2c1CN(C1CCC(=O)NC1=O)C2=O` (centres undefined) [Lenalidomide], the mass response in experiment [3] (0.1 µM) came to 1.82 ± 5.2; in experiment [3] (1 µM) it was 4.81 ± 3.5; in experiment [3] (10 µM), 4.13 ± 1.8; in experiment [3] (0.0001 M), 14.4 ± 1.9.

Regarding `N[C@@H](Cc1ccc(N(CCCl)CCCl)cc1)C(=O)O` [Melphalan], the mass response in experiment [3] (0.1 µM) came out at 9.64 ± 4.4; in experiment [3] (1 µM), 17.5 ± 4.6; in experiment [3] (10 µM), 12.9 ± 2.5; in experiment [3] (50 µM), 29.6 ± 1.6.

Regarding `CO[C@@H]1[C@H](N(C)C(=O)c2ccccc2)C[C@H]2O[C@]1(C)n1c3ccccc3c3c4c(c5c6ccccc6n2c5c31)C(=O)NC4` [Midostaurin], the mass response in experiment [2] (0.02 µM) came to 14.9 ± 0.91; in experiment [2] (0.2 µM), 38.7 ± 1.5; in experiment [2] (2 µM) it was 27.7 ± 0.98; in experiment [2] (20 µM), 30.2 ± 2.4.

Turning to `C=CC(=O)Nc1cc(Nc2nccc(-c3cn(C)c4ccccc34)n2)c(OC)cc1N(C)CCN(C)C` [Osimertinib], the mass response is 11.8 ± 3 in experiment [1] (0.05 µM), 9.37 ± 6.4 in experiment [1] (0.5 µM), 7.62 ± 2.4 in experiment [1] (5 µM) and 65.8 ± 0.9 in experiment [1] (50 µM).

As to `CC(=O)O[C@H]1C(=O)[C@@]2(C)[C@H]([C@H](OC(=O)c3ccccc3)[C@]3(O)C[C@H](OC(=O)[C@H](O)[C@@H](NC(=O)c4ccccc4)c4ccccc4)C(C)=C1C3(C)C)[C@]1(OC(C)=O)CO[C@@H]1C[C@@H]2O` [Paclitaxel], the mass response in experiment [1] (0.005 µM) was found to be 0.247 ± 0.78; in experiment [1] (0.025 µM), 26.9 ± 1.3; in experiment [1] (0.05 µM), 30.7 ± 0.9; in experiment [1] (0.1 µM), 30.6 ± 1.4.

Consider `Nc1cccc2c1C(=O)N(C1CCC(=O)NC1=O)C2=O` (centres undefined) [Pomalidomide], for which the mass response in experiment [3] (0.02 µM) is 8.45 ± 2.3; in experiment [3] (0.2 µM), 18.1 ± 5.3; in experiment [3] (2 µM) it was 17.1 ± 5.7; in experiment [3] (20 µM) it was 16.7 ± 3.2.

Regarding `CC(C)(C)c1cc(NC(=O)Nc2ccc(-c3cn4c(n3)sc3cc(OCCN5CCOCC5)ccc34)cc2)no1` [Quizartinib], the mass response is 1.17 ± 1.9 in experiment [2] (0.0001 µM), 16.3 ± 0.82 in experiment [2] (0.001 µM), 27 ± 0.32 in experiment [2] (0.01 µM) and 25.8 ± 0.77 in experiment [2] (0.1 µM).

`CNC(=O)c1cc(Oc2ccc(NC(=O)Nc3ccc(Cl)c(C(F)(F)F)c3)c(F)c2)ccn1` [Regorafenib]: the mass response is 1.84 ± 1.4 in experiment [3] (0.04 µM), 0.733 ± 1.4 in experiment [3] (0.4 µM), 10.9 ± 0.83 in experiment [3] (4 µM) and 44.9 ± 2.9 in experiment [3] (20 µM).

For the compound `O=C(/C=C\n1cnc(-c2cc(C(F)(F)F)cc(C(F)(F)F)c2)n1)NNc1cnccn1` [Selinexor], the mass response was -0.878 ± 0.35 in experiment [3] (0.005 µM), 4.05 ± 1.2 in experiment [3] (0.05 µM), 12.7 ± 3.1 in experiment [3] (0.5 µM) and 12 ± 3.1 in experiment [3] (5 µM).

Regarding `CNC(=O)c1cc(Oc2ccc(NC(=O)Nc3ccc(Cl)c(C(F)(F)F)c3)cc2)ccn1` [Sorafenib], the mass response is -1.17 ± 0.94 in experiment [2] (0.0005 µM), 10.6 ± 1 in experiment [2] (0.005 µM), 32 ± 0.86 in experiment [2] (0.05 µM) and 35.2 ± 0.46 in experiment [2] (0.5 µM).
